Test results reported in PubChem BioAssay AID222 (DTP/NCI, 2004).
Several values for one entry are separate records, joined by “and”; a condition that tells them apart may be missing. Equal entries are not always repeated. Toxic doses and inconclusive results are not listed.

System: C57BL/6 mice, intracerebral ependymoblastoma, median survival T/C
Experiment: NCI In Vivo Anticancer Drug Screen. Data for tumor model Ependymoblastoma (intracerebral) in C57BL/6 mice
Conditions: endpoint: median survival time, higher = longer survival
Procedure: The antitumor activity of compounds was measured in mice bearing transplantable tumors. Survival or tumor size were measured and the results are expressed as the measurement made in the treated group (T) divided by the measurement made in the vehicle treated control group (C). The tumor model used in this assay is Ependymoblastoma (intracerebral) in C57BL/6 mice

[1] = dose: 128.0 mg/kg/injection, schedule: Q01DX001 (ip), vehicle: Klucel (hydroxypropylcellulose) (HPC)
[2] = dose: 8.0 mg/kg/injection, schedule: Q01DX005 (ip), vehicle: saline
[3] = dose: 16.0 mg/kg/injection, schedule: Q01DX005 (ip), vehicle: saline with Tween-80
[4] = dose: 32.0 mg/kg/injection, schedule: Q01DX005 (ip), vehicle: saline with Tween-80
[5] = dose: 64.0 mg/kg/injection, schedule: Q01DX005 (ip), vehicle: saline with Tween-80
[6] = dose: 128.0 mg/kg/injection, schedule: Q01DX005 (ip), vehicle: saline with Tween-80
[7] = dose: 4.0 mg/kg/injection, schedule: Q01DX005 (ip), vehicle: saline with Tween-80
[8] = dose: 8.0 mg/kg/injection, schedule: Q01DX005 (ip), vehicle: saline with Tween-80
[9] = dose: 0.5 mg/kg/injection, schedule: Q01DX005 (ip), vehicle: saline
[10] = dose: 32.0 mg/kg/injection, schedule: Q01DX001 (ip), vehicle: Klucel (hydroxypropylcellulose) (HPC)
[11] = dose: 64.0 mg/kg/injection, schedule: Q01DX001 (ip), vehicle: Klucel (hydroxypropylcellulose) (HPC)
[12] = dose: 64.0 mg/kg/injection, schedule: Q01DX001 (oral), vehicle: Klucel (hydroxypropylcellulose) (HPC)
[13] = dose: 128.0 mg/kg/injection, schedule: Q01DX001 (oral), vehicle: Klucel (hydroxypropylcellulose) (HPC)
[14] = dose: 256.0 mg/kg/injection, schedule: Q01DX001 (ip), vehicle: Klucel (hydroxypropylcellulose) (HPC)
[15] = dose: 256.0 mg/kg/injection, schedule: Q01DX001 (oral), vehicle: Klucel (hydroxypropylcellulose) (HPC)
[16] = dose: 512.0 mg/kg/injection, schedule: Q01DX001 (ip), vehicle: Klucel (hydroxypropylcellulose) (HPC)
[17] = dose: 512.0 mg/kg/injection, schedule: Q01DX001 (oral), vehicle: Klucel (hydroxypropylcellulose) (HPC)

Cc1c2ccncc2c(C)c2c1[nH]c1ccccc12
T/C [1]: 103 % of control

CCOC(=O)C(C)(C)Oc1ccc(Cl)cc1
T/C (dose: 100.0 mg/kg/injection, schedule: Q01DX005 (ip), vehicle: saline with Tween-80): 96 % of control
T/C (dose: 200.0 mg/kg/injection, schedule: Q01DX005 (ip), vehicle: saline with Tween-80): 93 % of control

CCN(CC)CCCC(C)Nc1c2ccc(Cl)cc2nc2ccc(OC)cc12 (configuration not stated)
T/C [2]: 104 % of control
T/C [3]: 91 % of control
T/C (dose: 16.0 mg/kg/injection, schedule: Q01DX005 (ip), vehicle: saline): 98 % of control
T/C [4]: 102 % of control
T/C (dose: 32.0 mg/kg/injection, schedule: Q01DX005 (ip), vehicle: saline): 90 % of control
T/C [5]: 94 % of control
T/C (dose: 64.0 mg/kg/injection, schedule: Q01DX005 (ip), vehicle: saline): 95 % of control
T/C [6]: 94 % of control

CCOC(=O)CC(SP(=S)(OC)OC)C(=O)OCC (configuration not stated)
T/C (dose: 24.0 mg/kg/injection, schedule: Q01DX005 (ip), vehicle: saline with Tween-80): 101 % of control and 104 % of control
T/C (dose: 45.0 mg/kg/injection, schedule: Q01DX005 (ip), vehicle: saline with Tween-80): 101 % of control and 108 % of control
T/C (dose: 50.0 mg/kg/injection, schedule: Q01DX005 (ip), vehicle: suspension in saline): 102 % of control
T/C (dose: 90.0 mg/kg/injection, schedule: Q01DX005 (ip), vehicle: saline with Tween-80): 95 % of control and 116 % of control
T/C (dose: 100.0 mg/kg/injection, schedule: Q01DX005 (ip), vehicle: suspension in saline): 103 % of control
T/C (dose: 180.0 mg/kg/injection, schedule: Q01DX005 (ip), vehicle: saline with Tween-80): 104 % of control
T/C (dose: 200.0 mg/kg/injection, schedule: Q01DX005 (ip), vehicle: suspension in saline): 99 % of control

COc1cc2c3c(c1)-c1c(ccc(OC)c1OC)CC3N(CCN(CCCl)CCCl)CC2 (configuration not stated)
T/C [7]: 101 % of control and 108 % of control
T/C [8]: 104 % of control and 105 % of control
T/C [3]: 108 % of control
T/C [4]: 110 % of control

N[C@@H](Cc1ccc(N(CCCl)CCCl)cc1)C(=O)O
T/C (dose: 0.5 mg/kg/injection, schedule: Q01DX001 (ip), vehicle: saline): 103 % of control
T/C [9]: 106 % of control and 110 % of control
T/C (dose: 1.0 mg/kg/injection, schedule: Q01DX001 (ip), vehicle: saline): 88 % of control
T/C (dose: 1.0 mg/kg/injection, schedule: Q01DX005 (ip), vehicle: saline): 96 % of control and 109 % of control and 110 % of control
T/C (dose: 2.0 mg/kg/injection, schedule: Q01DX001 (ip), vehicle: saline): 102 % of control
T/C (dose: 2.0 mg/kg/injection, schedule: Q01DX005 (ip), vehicle: saline): 98 % of control and 108 % of control
T/C (dose: 4.0 mg/kg/injection, schedule: Q01DX005 (ip), vehicle: saline): 111 % of control
T/C (dose: 8.0 mg/kg/injection, schedule: Q01DX001 (ip), vehicle: saline): 119 % of control
T/C [2]: 100 % of control

O=NN(CCCl)C(=O)NC1CCCCC1
T/C (dose: 8.0 mg/kg/injection, schedule: Q01DX001 (ip), vehicle: Klucel (hydroxypropylcellulose) (HPC)): 106 % of control
T/C (dose: 8.0 mg/kg/injection, schedule: Q01DX005 (oral), vehicle: Klucel (hydroxypropylcellulose) (HPC)): 155 % of control
T/C (dose: 16.0 mg/kg/injection, schedule: Q01DX001 (ip), vehicle: Klucel (hydroxypropylcellulose) (HPC)): 105 % of control
T/C (dose: 16.0 mg/kg/injection, schedule: Q01DX001 (oral), vehicle: Klucel (hydroxypropylcellulose) (HPC)): 111 % of control
T/C (dose: 16.0 mg/kg/injection, schedule: Q01DX005 (oral), vehicle: Klucel (hydroxypropylcellulose) (HPC)): 311 % of control
T/C [10]: 98 % of control and 111 % of control
T/C (dose: 32.0 mg/kg/injection, schedule: Q01DX001 (oral), vehicle: Klucel (hydroxypropylcellulose) (HPC)): 113 % of control
T/C (dose: 32.0 mg/kg/injection, schedule: Q01DX005 (oral), vehicle: Klucel (hydroxypropylcellulose) (HPC)): 310 % of control
T/C [11]: 104 % of control and 106 % of control
T/C [12]: 113 % of control
T/C [1]: 95 % of control
T/C [13]: 100 % of control
T/C [14]: 108 % of control
T/C [15]: 104 % of control
T/C [16]: 95 % of control
T/C [17]: 97 % of control

O=c1cc[nH]c(=O)[nH]1
T/C (dose: 32.0 mg/kg/injection, schedule: Q01DX005 (ip), vehicle: Klucel (hydroxypropylcellulose) (HPC)): 98 % of control
T/C (dose: 64.0 mg/kg/injection, schedule: Q01DX005 (ip), vehicle: Klucel (hydroxypropylcellulose) (HPC)): 98 % of control and 105 % of control
T/C [5]: 95 % of control
T/C (dose: 128.0 mg/kg/injection, schedule: Q01DX005 (ip), vehicle: Klucel (hydroxypropylcellulose) (HPC)): 100 % of control and 108 % of control
T/C [6]: 98 % of control
T/C (dose: 256.0 mg/kg/injection, schedule: Q01DX005 (ip), vehicle: Klucel (hydroxypropylcellulose) (HPC)): 98 % of control and 110 % of control
T/C (dose: 256.0 mg/kg/injection, schedule: Q01DX005 (ip), vehicle: saline with Tween-80): 94 % of control
T/C (dose: 512.0 mg/kg/injection, schedule: Q01DX005 (ip), vehicle: Klucel (hydroxypropylcellulose) (HPC)): 96 % of control and 104 % of control
T/C (dose: 512.0 mg/kg/injection, schedule: Q01DX005 (ip), vehicle: saline with Tween-80): 104 % of control
T/C (dose: 1024.0 mg/kg/injection, schedule: Q01DX005 (ip), vehicle: Klucel (hydroxypropylcellulose) (HPC)): 109 % of control
T/C (dose: 1024.0 mg/kg/injection, schedule: Q01DX005 (ip), vehicle: saline with Tween-80): 100 % of control

Cc1c2cc[n+](C)cc2c(C)c2c1[nH]c1ccc(O)cc12
T/C (dose: 0.12 mg/kg/injection, schedule: Q01DX005 (ip), vehicle: saline): 100 % of control
T/C (dose: 0.25 mg/kg/injection, schedule: Q01DX005 (ip), vehicle: saline): 101 % of control and 112 % of control
T/C [9]: 101 % of control

CCOC(=O)C(CC(C)C)NC(=O)C(Cc1ccc(N(CCCl)CCCl)cc1)NC(C)=O (configuration not stated)
T/C (dose: 1.0 mg/kg/injection, schedule: Q01DX005 (ip), vehicle: Klucel (hydroxypropylcellulose) (HPC)): 103 % of control
T/C (dose: 2.0 mg/kg/injection, schedule: Q01DX005 (ip), vehicle: Klucel (hydroxypropylcellulose) (HPC)): 94 % of control and 101 % of control
T/C [7]: 96 % of control and 109 % of control
T/C [8]: 110 % of control and 119 % of control
T/C [3]: 107 % of control
T/C (dose: 16.0 mg/kg/injection, schedule: Q#A X002 (ip), vehicle: Klucel (hydroxypropylcellulose) (HPC)): 110 % of control
T/C [10]: 100 % of control
T/C [4]: 97 % of control and 116 % of control
T/C (dose: 32.0 mg/kg/injection, schedule: Q#A X002 (ip), vehicle: Klucel (hydroxypropylcellulose) (HPC)): 96 % of control
T/C [11]: 97 % of control and 103 % of control
T/C [12]: 99 % of control and 113 % of control
T/C [5]: 91 % of control
T/C (dose: 64.0 mg/kg/injection, schedule: Q#A X002 (ip), vehicle: Klucel (hydroxypropylcellulose) (HPC)): 94 % of control
T/C [1]: 94 % of control and 115 % of control
T/C [13]: 99 % of control and 110 % of control
T/C (dose: 128.0 mg/kg/injection, schedule: Q#A X002 (ip), vehicle: Klucel (hydroxypropylcellulose) (HPC)): 99 % of control
T/C [14]: 91 % of control and 98 % of control
T/C [15]: 101 % of control and 110 % of control
T/C [16]: 86 % of control
T/C [17]: 104 % of control and 114 % of control
T/C (dose: 1024.0 mg/kg/injection, schedule: Q01DX001 (oral), vehicle: Klucel (hydroxypropylcellulose) (HPC)): 100 % of control and 109 % of control

CN(C)CC(=O)c1ccc(O)c(O)c1
T/C (dose: 100.0 mg/kg/injection, schedule: Q01DX005 (ip), vehicle: saline): 101 % of control
T/C (dose: 200.0 mg/kg/injection, schedule: Q01DX005 (ip), vehicle: saline): 99 % of control
T/C (dose: 400.0 mg/kg/injection, schedule: Q01DX005 (ip), vehicle: saline): 108 % of control

O=C(CCCN1CCC(O)(c2cccc(C(F)(F)F)c2)CC1)c1ccc(F)cc1
T/C (dose: 25.0 mg/kg/injection, schedule: Q04DX003 (ip), vehicle: Klucel (hydroxypropylcellulose) (HPC)): 103 % of control
T/C (dose: 50.0 mg/kg/injection, schedule: Q04DX003 (ip), vehicle: Klucel (hydroxypropylcellulose) (HPC)): 97 % of control
